Earlier results, collected in patent US20090191293A1, “Composition for enhancing immunity and reducing inflammation related to infections” (IOMEDI DEVELOPMENT INTERNATIONAL, SRL, priority 2007, published 2009).

Assays:
[1] = system: NF-κB dependent signaling pathway; conditions: lipopolysaccharide-induced inflammation
[2] = system: arachidonic acid inflammatory reactions
[3] = system: LPS-Stimulated Monocytes/Macrophages
NF-κB = conditions: treatment of mice
[4] = system: intercellular adhesion molecule-1; conditions: activated by TNF-α
[5] = system: nuclear factor kappa B (NF-κB); conditions: HL-60-derived neutrophilic cells
[6] = daily supplementation, amounts greater than 100 mg

OC[C@H]1O[C@@H](Oc2cc3c(O)cc(O)cc3[o+]c2-c2ccc(O)c(O)c2)[C@H](O)[C@@H](O)[C@@H]1O [Example C3G, cyanidin-3-glucoside]
NF-κB dependent signaling pathway [1]: inhibit the NF-κB dependent signaling pathway

Oc1cc(O)c2c(c1)O[C@H](c1ccc(O)c(O)c1)[C@H](O)[C@H]2c1c(O)cc(O)c2c1O[C@H](c1ccc(O)c(O)c1)[C@H](O)C2 [Procyanidin B(2)]
arachidonic acid inflammatory reactions [2]: strongly inhibit arachidonic acid inflammatory reactions

CC1=C(/C=C/C(C)=C/C=C/C(C)=C/C(=O)O)C(C)(C)CCC1 [all trans-retinoic acid (atRA), all trans-retinoic acid]
production of IL-10 [3]: enhancing the production of the immune modulating cytokine, IL-10
production of pro-inflammatory cytokines (IL-12 and TNF-α) [3]: lower the production of pro-inflammatory cytokines

C=CCS[S+]([O-])CC=C (stereo not drawn) [allicin]
NF-κB binding to the nucleus (NF-κB): significantly reduced NF-κB binding to the nucleus
TNF-α mediated T cell adhesion to extracellular matrix components and endothelial cells (T cell): inhibition of TNF-α mediated T cell adhesion

C=C1CC[C@@H]2[C@](C)(CO)[C@H](O)CC[C@@]2(C)[C@@H]1C/C=C1/C(=O)OC[C@H]1O [andrographolide]
expression of intercellular adhesion molecule-1 [4]: inhibit expression of intercellular adhesion molecule-1
binding of NF-κB to the DNA [5]: specifically affects the binding of nuclear factor kappa B (NF-κB) to the DNA

O=C1O[C@H]([C@@H](O)CO)C(O)=C1O [ascorbic acid, L-ascorbic acid]
incidence, severity and integrated morbidity of the common cold [6]: lowers the incidence, severity and integrated morbidity of the common cold
